RP-LC retention time data for 78 compounds are collected here from the METLIN SMRT retention time set (Domingo-Almenara et al. 2019).

This data set is described as follows: gradient 5% acetonitrile 3 min, to 50% in 2 min, to 85% in 15 min, held 3 min, 100 µL/min. The conditions noted are these: column: Zorbax Extend-C18 2.1 x 50 mm; eluents: water / acetonitrile, 0.1% formic acid. The method, boiled down:
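The mobile phases were water and acetonitrile, each with 0.1% formic acid, pumped at 100 μL/min through a Zorbax Extend-C18 column (2.1 × 50 mm, 1.8 μm). Pure standards were injected as mixtures of ~100 molecules and detected by a quadrupole time-of-flight mass spectrometer in positive and negative ionization mode. Retention time came from computationally picked adduct peaks, each inspected by hand.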
Take `COc1ccc(CCNC(=O)CSc2nccn2Cc2ccco2)cc1OC`: the RP-LC retention time is 574 s.

For the compound `Cc1cccc(CN2CCCn3nc(C(=O)NCCN4CCOCC4)cc3C2=O)c1`, the RP-LC retention time was found to be 621 s.

`Cn1c(=O)sc2cc(S(=O)(=O)N3CCC(C(=O)Nc4ccc5c(c4)OCO5)CC3)ccc21`: the RP-LC retention time worked out at 817 s.

In the case of `O=C(Cn1cccc(-c2nc(-c3ccccc3)no2)c1=O)Nc1ccccc1Cl`, the RP-LC retention time was 885 s.

In the case of `CCOc1ccc(NC(=O)c2cnc(-c3ccc(F)cc3)nc2-c2ccncc2)cc1`, the RP-LC retention time came out at 935 s.

In turn, `O=C(CSc1ccc(-c2ccc3c(c2)OCO3)nn1)Nc1ccc2c(c1)OCCO2` registered an RP-LC retention time of 782 s.

For the compound `COC(=O)c1c(-c2ccc(F)cc2)noc1NCc1ccccn1`, the RP-LC retention time came out at 771 s.

On to `Cc1ccccc1-c1nc2ccccc2n1CC(N)=O`, for which the RP-LC retention time worked out at 616 s.

For `CC1=C(C(=O)Nc2cc(Cl)ccc2C(=O)NC2CCC(C)CC2)SCCO1` (stereo not drawn), the RP-LC retention time is 1310 s.

Compound `O=C(Nc1ccccc1F)C1CCN(S(=O)(=O)c2cc(-c3noc(C4CCC4)n3)cs2)CC1` returned an RP-LC retention time of 958 s.

`COc1ccc(CCNS(=O)(=O)c2cccc(-c3nc(-c4ccc(C)cc4)no3)c2)cc1OC` showed an RP-LC retention time of 1150 s.

In the case of `CCOC(=O)c1[nH]c(C)c(CCC(=O)N2CCC(C(=O)N3CCCCCC3)CC2)c1C`, the RP-LC retention time amounted to 774 s.

The compound `COc1cc(OC)cc(-c2nc(-c3ccc4ncn(C(C)C)c4c3)no2)c1` had an RP-LC retention time of 843 s.

As for `CCCN(CCC)C(=O)c1cc(NC(=O)CC)cnc1N1CCNCC1`, the RP-LC retention time was 588 s.

Consider `CCc1nccn1Cc1nc(-c2ccccc2Cl)no1`, for which the RP-LC retention time is 640 s.

Compound `Cc1nc(-c2csc(S(=O)(=O)N3CCCC(C(=O)Nc4ccc5c(c4)OCO5)C3)c2)no1` (stereo not drawn) displayed an RP-LC retention time of 894 s.

`O=C1CC(c2nc(-c3cccc(Cl)c3)no2)CN1c1ccc(F)cc1` (stereo not drawn) displayed an RP-LC retention time of 1030 s.

The compound `Cc1cc(SCC(=O)N2CCCc3ccccc32)nc(C)n1` yielded an RP-LC retention time of 722 s.

`Cc1cc(=O)n2nc(N3CCCC(C(=O)N4CCC(Cc5ccccc5)CC4)C3)sc2n1` (stereo not drawn) displayed an RP-LC retention time of 726 s.

As for `O=C(NCCCN1CCCCC1)c1csc(-c2ccc(N3CCCC3)nc2)n1`, the RP-LC retention time came to 562 s.

`COC(=O)c1ccc(NC(=O)C(=O)NCC2CCN(C(=O)c3ccccc3F)CC2)cc1` came in with an RP-LC retention time of 751 s.

Consider `O=C(c1ccc2c(c1)CCC(=O)N2Cc1ccccc1)N1CCN(c2ccc(F)cc2)CC1`, for which the RP-LC retention time is 923 s.

In turn, `COc1ccc(Nc2nccc(C3CCCN(C(=O)C4CCCCC4)C3)n2)cc1` (stereo not drawn) registered an RP-LC retention time of 997 s.

Compound `CC(=O)N1CCCSc2ccc(S(=O)(=O)N3CCN(c4cccc(Cl)c4)CC3)cc21` showed an RP-LC retention time of 1050 s.

Take `O=C(Nc1ccccn1)C1(c2cccs2)CCOCC1`: the RP-LC retention time amounted to 745 s.

`CN(C)C(CNS(=O)(=O)c1ccc(Br)s1)c1cn(C)c2ccccc12` (stereo not drawn) came in with an RP-LC retention time of 595 s.

The compound `CCc1nc2c(c(=O)n1CC(=O)Nc1cc(C)ccc1OC)CN(Cc1ccccc1)CC2` yielded an RP-LC retention time of 681 s.

On to `CC1=NS(=O)(=O)N(C)C=C1C(=O)OCc1nc(-c2cccc(Cl)c2)no1`, for which the RP-LC retention time was 1010 s.

Compound `Cc1ccc(C)c(CNS(=O)(=O)c2cc(-c3nc(C(C)(C)C)cs3)cs2)c1` showed an RP-LC retention time of 1360 s.

Consider `O=C(N[C@H]1C[C@@H]2C[C@H]1N(S(=O)(=O)c1ccc3c(c1)OCCO3)C2)c1cccs1`, for which the RP-LC retention time is 816 s.

`O=C(Cc1ccc(NC(=O)Nc2ccccc2Cl)cc1)NCC(F)(F)F` yielded an RP-LC retention time of 696 s.

For the compound `CS(=O)(=O)N1CC[C@H]2CN(Cc3cn[nH]c3-c3ccccc3)C[C@@]2(CF)C1`, the RP-LC retention time stood at 592 s.

Regarding `Cc1ccc(S(=O)(=O)N2CCC3(CC2)NCCN=C3NCc2ccccc2C)c(C)c1`, the RP-LC retention time was 788 s.

Consider `Cc1ccc(-n2nc3c(N4CCCC(C(=O)NCc5ccccc5)C4)nnc(C)c3c2C)cc1` (stereo not drawn), for which the RP-LC retention time is 754 s.

As to `CC(C)NCC(O)c1ccc(N)c(C#N)c1` (stereo not drawn), the RP-LC retention time came out at 563 s.

`CC(=O)N1c2ccc(S(=O)(=O)N3CCCCCC3)cc2CC1C(=O)NCc1ccc(F)cc1` (stereo not drawn) yielded an RP-LC retention time of 890 s.

`CN(C(=O)Nc1ccccc1)C1CCc2nn(CC3CC3)c(=O)n2CC1` (stereo not drawn) registered an RP-LC retention time of 681 s.

Regarding `Cc1ccc(NC(=O)Nc2ccc(NC(=O)N3CCC(C(=O)NCC4CC4)CC3)cc2)cc1`, the RP-LC retention time stood at 740 s.

`COc1cccc(-c2ccc3nc(N4CCC(C(=O)NC5CC5)CC4)sc3n2)c1` displayed an RP-LC retention time of 861 s.

`CCCN1CCN(CCCNC(=O)CSc2nc3ccccc3n(C)c2=O)CC1` came in with an RP-LC retention time of 564 s.

`CC(C)CNC(=O)c1ccc2c(c1)Sc1ncccc1C(=O)N2C1CC1` yielded an RP-LC retention time of 752 s.

Compound `CCC(=O)N1CCC(C2CCN(S(=O)(=O)c3ccccc3)CC2)C1` (stereo not drawn) had an RP-LC retention time of 788 s.

On to `COc1ccc(-c2ccc3nc(N4CCC(C(=O)N(C)C)CC4)sc3n2)cc1`, for which the RP-LC retention time turned out to be 828 s.

The compound `Cn1cc(CCNC(=O)Nc2ccccc2C(F)(F)F)c2cccnc21` registered an RP-LC retention time of 779 s.

The compound `Cc1ccc(NS(=O)(=O)c2cc3n(c2)CCN(C(C)C)C3=O)cc1C` showed an RP-LC retention time of 794 s.

In turn, `COc1ccc(N2C(=O)C3N=NN(Cc4nc(-c5ccc(Cl)cc5)no4)C3C2=O)cc1OC` (stereo not drawn) yielded an RP-LC retention time of 963 s.

Consider `CCOC(=O)c1[nH]c(C)c(C(=O)C(C)N(CC(C)C)C(=O)c2ccc(C)cc2)c1C` (stereo not drawn), for which the RP-LC retention time turned out to be 1030 s.

`COc1ccc(Cl)cc1N1CC(c2nc(-c3ccccn3)no2)CC1=O` (stereo not drawn) gave an RP-LC retention time of 724 s.

Take `Cc1csc(-c2cc(S(=O)(=O)NC(C)(C)C)cn2CC(=O)N2CCCCC2)n1`: the RP-LC retention time was determined as 926 s.

`Cc1cc2c(c(=O)n(-c3ccccc3)c(=O)n2CC(=O)Nc2ccccc2F)n1C`: the RP-LC retention time was 803 s.

The compound `CC1CCC(C(C)C)C(NC(=O)c2ccncc2)C1` (stereo not drawn) had an RP-LC retention time of 894 s.

Compound `CC1CCN(C(=O)C2=CN(c3ccc(F)cc3)c3ccccc3S2(=O)=O)CC1` yielded an RP-LC retention time of 907 s.

Turning to `CC1CCN(c2ncc(NC(=O)c3ccc(Br)cc3)cc2C(=O)O)CC1`, the RP-LC retention time was determined as 759 s.

In turn, `O=C(NC1CC1)C1CCCN(c2ccc3cc(S(=O)(=O)N4CCCCC4)ccc3n2)C1` (stereo not drawn) gave an RP-LC retention time of 683 s.

In the case of `Cc1cc(S(=O)(=O)N2CCc3nc(-c4ccc(F)cc4)ncc3C2)ccc1F`, the RP-LC retention time worked out at 1130 s.

In the case of `CCc1nn(C)c(=O)c2cc(S(=O)(=O)NCc3ccccc3F)cn12`, the RP-LC retention time turned out to be 860 s.

`COc1ccc2[nH]c(=O)c(CCC(=O)NCCN3CCc4ccccc4C3)cc2c1` had an RP-LC retention time of 623 s.

For `COc1ccc(-c2cc(-c3nc4c5sc6nc(C)cc(C)c6c5ncn4n3)[nH]n2)cc1OC`, the RP-LC retention time was 919 s.

For the compound `COc1cccc(N2CCN(C(=O)C3CCN(S(=O)(=O)c4cn(C)c(C)n4)CC3)CC2)c1`, the RP-LC retention time amounted to 702 s.

`O=C(CSc1nnc(-c2ccc3c(c2)OCO3)o1)N1CCc2ccccc2C1` returned an RP-LC retention time of 990 s.

In turn, `Cc1sc(-c2nc(-c3cccc(F)c3)no2)cc1S(=O)(=O)N1CCN(c2ccccn2)CC1` returned an RP-LC retention time of 959 s.

For the compound `O=C(Nc1cccc(Cl)c1)Nc1nccs1`, the RP-LC retention time is 870 s.

In turn, `O=C(CN1c2ccc(F)cc2-c2ccccc2S1(=O)=O)NCc1ccc2c(c1)OCO2` had an RP-LC retention time of 913 s.

In the case of `CCc1cccc(C)c1Nc1c(-c2ccc(C)cc2)nc2ncccn12`, the RP-LC retention time came out at 878 s.

Compound `CC(C)c1cc(=O)n2c(n1)SCC2CC(=O)Nc1cccc(F)c1` (stereo not drawn) showed an RP-LC retention time of 763 s.

`O=c1c2sccc2n(Cc2nc(-c3cccc(Br)c3)no2)c(=O)n1-c1ccccc1` registered an RP-LC retention time of 1050 s.

Compound `O=C(C1CCN(c2cnc(N3CCSCC3)nc2)CC1)N1CCC2(CC1)OCCO2` registered an RP-LC retention time of 692 s.

For the compound `COC(=O)[C@H](CCSC)NC(=O)c1cccc(-n2cnnn2)c1`, the RP-LC retention time was determined as 707 s.

Take `CCn1cc(-c2nc(C(=O)Nc3ccc(C(=O)OC)cc3)cs2)c2cccnc21`: the RP-LC retention time is 1080 s.

Compound `CCOc1ccc(N2CC(c3nc(-c4ccc(OC)cc4OC)no3)CC2=O)cc1` (stereo not drawn) showed an RP-LC retention time of 902 s.

As to `CC1=C(c2ccc(Cl)cc2)S(=O)(=O)N=C1N1CCCN(C(=O)c2ccco2)CC1`, the RP-LC retention time was found to be 823 s.

With `CC(C)(C)c1ccc(-c2nc(-c3ccc(S(=O)(=O)N4CCOCC4)cc3)no2)cc1`, the RP-LC retention time was determined as 1400 s.

Regarding `O=C(NCCCN1CCCC1)C1CCN(Cc2cc3ccccc3n2Cc2ccccc2Cl)CC1`, the RP-LC retention time came to 609 s.

As for `O=C(NCCC1CCN(C(=O)Nc2cc(F)ccc2F)CC1)c1cccs1`, the RP-LC retention time amounted to 818 s.

Compound `CC1CC(=O)c2cnc(N3CCN(c4ncccn4)CC3)nc2C1` (stereo not drawn) displayed an RP-LC retention time of 798 s.

Compound `CC(C(=O)Nc1ccc2c(c1)OCCO2)n1cnc2nc3c(cc2c1=O)CCCC3` (stereo not drawn) returned an RP-LC retention time of 712 s.

The compound `Cc1ccc2[nH]c(=O)c(CCC(=O)O)cc2c1` came in with an RP-LC retention time of 651 s.

`COc1cccc(NC(=O)Cn2c(C)cc(-c3nnc(-c4ccccc4)o3)c2C)c1` showed an RP-LC retention time of 921 s.
